The text below walks through data of US7138525B2, “N-substituted-2-oxodihydropyridine derivatives” (Banyu Pharmaceutical Co., Ltd., priority 2002, dated 2006).

Where two headings read alike, the source gives them in different places.

One data set addresses T1, human NPY Y5 receptor (Homo sapiens, UniProt Q15761).
T1 construct: expressed in transfected cells; host or cells: COS-7, CHO and LM(tk-) cells (membrane preparation)
T1 sequence (Q15761 1-445): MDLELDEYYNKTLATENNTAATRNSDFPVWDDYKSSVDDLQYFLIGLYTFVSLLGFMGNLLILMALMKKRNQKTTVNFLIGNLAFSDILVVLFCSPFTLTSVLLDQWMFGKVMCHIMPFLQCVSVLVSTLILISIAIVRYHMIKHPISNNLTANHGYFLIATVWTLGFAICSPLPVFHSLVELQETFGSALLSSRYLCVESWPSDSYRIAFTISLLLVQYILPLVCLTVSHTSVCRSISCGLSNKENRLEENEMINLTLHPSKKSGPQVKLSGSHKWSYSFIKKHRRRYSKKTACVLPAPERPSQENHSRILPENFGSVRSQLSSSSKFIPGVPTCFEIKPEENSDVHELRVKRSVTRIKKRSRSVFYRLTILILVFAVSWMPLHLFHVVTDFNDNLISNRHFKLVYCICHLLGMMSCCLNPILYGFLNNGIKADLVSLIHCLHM
The data set is described as follows: NPY binding inhibition test ([125I]peptideYY binding to membranes of NPY Y5 receptor expressing cells). The following applies: 25° C., 2 hours, membrane of NPY Y5 receptor expressing cells, read-out: IC50 against specific peptideYY binding. The source says:
cDNA sequence encoding human NPY Y5 receptor (c.f. International patent publication number WO96/16542) was cloned into expression vectors pcDNA3, pRc/RSV (made by Invitrogen Inc.) and pCI-neo (made by Promega Inc.). The expression vectors thus obtained were transfected to host cells COS-7, CHO and LM(tk−) (American Type Culture Collection) by cationic lipid method (Proceedings of the National Academy of Sciences of the United States of America, vol. 84: p. 7413(1987)) to give NPY Y5 receptor expression cells.
A membrane sample prepared from the cells which expressed NPY Y5 receptor was incubated together with a test compound and [^125I]peptideYY (made by NEN) (20,000 cpm) in an assay buffer (25 mM Tris buffer, pH7.4, containing 10 mM magnesium chloride, 1 mM phenylmethylsulfonyl fluoride, 0.1% bacitracin and 0.5% bovine serum albumin) at 25° C. for 2 hours, then filtered through a glass filter GF/C and washed with 5 mM Tris buffer (pH7.4) containing 0.3% BSA. The radio activity of the cake on the glass filter was measured. Non-specific binding was measured in the presence of 1 μM peptide YY, and a 50% Inhibitory Concentration (IC50) of the test compound against specific peptideYY binding was determined (Endocrinology, vol. 131: p. 2090(1992)).

Data set [1] in a line: Pharmacokinetics test (plasma concentration by LC/MS/MS). Format: in vivo. The following applies: rat, male SD rats, overnight fasting, oral or intravenous administration. Here is the method:
A test compound was orally or intravenously administered to male SD rats (7–10 weeks old, 200–400 g) under the overnight fasting condition. About 100 μL of blood was collected from the tail vein by heparinized capillary at designated time. The blood was centrifuged (4° C., 6,000 r.p.m., 10 minutes) to obtain the plasma. 3-fold amount of ethanol containing an internal standard was added to plasma. The mixture was stirred, allowed to stand at −20° C. for 20 minutes, and then centrifuged (4° C., 10,000 r.p.m., 10 minutes). The supernatant was analyzed by LC/MS/MS, and the concentration of the test compound in the plasma was measured using a relative calibration curve.

Data set [2] in a line: Brain/cerebrospinal fluid transport test. The following applies: male SD rats, 2 hours after oral administration (10 mg/kg); for concentration at 2 h: rat. In kind it is in vivo. The protocol:
A test compound was orally or intravenously administered to male SD rats (7–10 weeks old, 200–400 g), and whole blood was collected from the abdominal aorta using a heparin-treated syringe under the ether anesthesia at designated time. Then, the head skin was cut out, and a dental 30 G needle was inserted between the cervical vertebrae, and it was further inserted into the cavum subarachnoideale. After 50 to 100 μL cerebrospinal fluid had been collected by a 1 ml-syringe through a tube connected to dental 30 G needle, the brain was extracted. The blood sample was centrifuged (4° C., 6,000 r.p.m., 10 minutes) to obtain the plasma. 3-fold amount of ethanol containing an internal standard was added, and stirred. The brain sample was homogenized after addition of 2 ml water, an aliquot of the homogenate was taken and 3-fold amount of ethanol containing an internal standard was added, and stirred. The cerebrospinal fluid was stirred after adding 3-fold amount of ethanol containing an internal standard. These samples were allowed to stand at −20° C. for 20 minutes, and then centrifuged (4° C., 12,000 g, 10 minutes). The supernatant was analyzed by LC/MS/MS, and the concentration of the test compound in the plasma, brain, and cerebrospinal fluid were measured by the method using a relative calibration curve.

For `C[C@@H]1NC(c2ccc(=O)n(C(F)F)c2)=NC1(c1ccc(F)cc1)c1ccc(C(F)(F)F)nc1` (single isomer, unassigned) [Example 1-7], the IC50 at human NPY Y5 receptor is 2.7 nM. Besides, in data set [1], the bioavailability came out at 94% and the half-life was 8.5 h. The “concentration in the brain” value in data set [2] was 2.48 nmol/g. Also, the concentration at 2 h in data set [2] (cerebrospinal fluid, read-out: concentration in the cerebrospinal fluid) stood at 0.15 µM. In addition, the concentration at 2 h in data set [2] (plasma, read-out: concentration in the plasma) came out at 3.17 µM.

As to `CCn1cc(C2=NC(c3ccc(F)cc3)(c3ccc(C(F)(F)F)nc3)[C@H](C)N2)ccc1=O` (single isomer, unassigned) [Example 1-8], at human NPY Y5 receptor, the 50% inhibitory concentration (IC50) stood at 2.1 nM.

Turning to `CCCn1cc(C2=NC(c3ccc(F)cc3)(c3ccc(C(F)(F)F)nc3)[C@H](C)N2)ccc1=O` (single isomer, unassigned) [Example 1-9], at human NPY Y5 receptor, the 50% inhibitory concentration (IC50) was determined as 1.5 nM.

`CCn1cc(C2=NC(c3ccc(F)cc3)(c3ccc(C(F)(F)F)nc3)[C@H](C)N2)cc(Cl)c1=O` (single isomer, unassigned) [Example 1-11]: the IC50 on human NPY Y5 receptor turned out to be 2.3 nM.

Turning to `C[C@@H]1NC(c2ccc(=O)n(C(F)F)c2)=NC1(c1ccc(Cl)cc1)c1ccnc(F)c1` (single isomer, unassigned) [Example 1-21], the IC50 on human NPY Y5 receptor was found to be 2.7 nM.

As to `CCn1cc(C2=NC(c3ccc(Cl)cc3)(c3ccnc(F)c3)[C@H](C)N2)ccc1=O` (single isomer, unassigned) [Example 1-23], the 50% inhibitory concentration (IC50) on human NPY Y5 receptor is 2.8 nM.

As to `CCn1cc(C2=NC(c3ccc(F)cc3)(c3ccc(C(F)(F)F)nc3)[C@H](C)N2)cc(F)c1=O` (single isomer, unassigned) [Example 1-29], on human NPY Y5 receptor, the half-maximal inhibitory concentration (IC50) was 2.9 nM.

Regarding `C[C@@H]1NC(c2ccc(=O)n(C(F)F)c2)=NC1(c1ccc(F)cc1)c1ccc(C(F)F)nc1` (single isomer, unassigned) [Example 1-42], the IC50 on human NPY Y5 receptor worked out at 2.8 nM.

For `CCn1cc(C2=NC(c3ccc(F)cc3)(c3ccc(C(F)F)nc3)[C@H](C)N2)cc(F)c1=O` (single isomer, unassigned) [Example 1-45], the IC50 at human NPY Y5 receptor worked out at 2.8 nM.

Consider `CCn1cc(C2=N[C@@](c3ccc(F)cc3)(c3ccc(F)nc3)[C@H](C)N2)cc(F)c1=O` [Example 1-25, 1-ethyl-3-fluoro-5-[(4S,5S)-4-(4-fluorophenyl)-4-(6-fluoro-3-pyridyl)-5-methyl-2-imidazolin-2-yl]-2-pyridone], for which the IC50 at human NPY Y5 receptor was 2.9 nM.

Consider `CCc1cc(C2=N[C@@](c3ccc(F)cc3)(c3ccc(F)nc3)[C@H](C)N2)cn(C)c1=O` [Example 1-39, 3-ethyl-5-[(4S,5S)-4-(4-fluorophenyl)-4-(6-fluoro-3-pyridyl)-5-methyl-2-imidazolin-2-yl]-1-methyl-2-pyridone], for which the IC50 on human NPY Y5 receptor turned out to be 2.6 nM.

With `COn1cc(C2=N[C@](c3ccc(F)cc3)(c3ccc(C(F)(F)F)nc3)[C@H](C)N2)ccc1=O` [Example 1-53, 5-[(4R,5S)-4-(4-fluorophenyl)-5-methyl-4-(6-trifluoromethyl-3-pyridyl)-2-imidazolin-2-yl]-1-methoxy-2-pyridone], the half-inhibitory concentration (IC50) at human NPY Y5 receptor was found to be 2.5 nM.

`CCc1cc(C2=N[C@@](c3ccc(F)cc3)(c3ccc(F)nc3)[C@H](C)N2)cn(C(F)F)c1=O` [Example 1-70, 1-difluoromethyl-3-ethyl-5-[(4S,5S)-4-(4-fluorophenyl)-4-(6-fluoro-3-pyridyl)-5-methyl-2-imidazolin-2-yl]-2-pyridone]: the IC50 at human NPY Y5 receptor worked out at 2.9 nM.

As a reminder, the IC50 is the concentration at which inhibition is half-maximal. For orientation: bioavailability means dose-corrected exposure relative to a reference, in per cent. For orientation: half-life means the time needed for the level to fall by half in the phase considered. Higher therefore signals slow decline.
